Laboratory results from ChEMBL document CHEMBL1221195, “Post-translational enzyme activation in an animal via optimized conditional protein splicing” (2007).
Calls of active or inactive are those of the source. The calls are words filed in the database; no cut-off is given here.

Legend:
[1] = Induction of luciferase protein trans-splicing in Drosophila melanogaster S2 cells transfected with N-luc and C-luc and 2 copies of FRB assessed as increase in luciferase activity at 100 nM after 4 hrs relative to control; assay type: functional
[2] = tested on: Drosophila melanogaster; assay: Activation of luciferase in Drosophila melanogaster containing genomically integrated luciferase CPS at 100 uM by Western blot method; assay type: functional, organism-based
[3] = tested on: S2; assay: Induction of luciferase protein trans-splicing in Drosophila melanogaster S2 cells transfected with N-luc C1A mutant and C-luc N45A mutant assessed as increase in luciferase activity at 100 nM after 4 hrs by Western blot analysis; assay type: functional, cell-based
[4] = tested on: Drosophila melanogaster; assay: Activation of luciferase in Drosophila melanogaster containing genomically integrated luciferase CPS at 100 uM; assay type: functional, organism-based
[5] = Induction of luciferase protein trans-splicing in Drosophila melanogaster S2 cells transfected with N-luc and C-luc assessed as increase in luciferase activity at 100 nM after 4 hrs at 28 degC relative to control; assay type: functional
[6] = tested on: S2; assay: Induction of luciferase protein trans-splicing in Drosophila melanogaster S2 cells transfected with N-luc and C-lucFRB2 assessed as increase in luciferase activity pretreated with ascomycin for 60 mins measured at 100 nM after 4 hrs; assay type: functional, cell-based
[7] = tested on: S2; assay: Induction of luciferase protein trans-splicing in Drosophila melanogaster S2 cells transfected with N-luc and C-lucFRB2 assessed as increase in luciferase activity at 100 nM after 4 hrs; assay type: functional, cell-based; conditions: TDE = time-dependent effect
[8] = tested on: S2; assay: Induction of luciferase protein trans-splicing in Drosophila melanogaster S2 cells transfected with N-luc and C-lucFRB2 assessed as increase in luciferase activity pretreated with ascomycin for 15 mins measured at 100 nM after 4 hrs; assay type: functional, cell-based
[9] = tested on: S2; assay: Induction of luciferase protein trans-splicing in Drosophila melanogaster S2 cells transfected with N-luc and C-luc assessed as increase in luciferase activity after 4 hrs by Western blot analysis; assay type: functional, cell-based
[10] = tested on: S2; assay: Induction of luciferase protein trans-splicing in Drosophila melanogaster S2 cells transfected with N-luc and C-luc assessed as increase in luciferase activity at 100 nM after 4 hrs at 25 degC; assay type: functional, cell-based
[11] = Induction of luciferase protein trans-splicing in Drosophila melanogaster S2 cells transfected with N-luc and C-luc assessed as increase in luciferase activity at 100 nM after 4 hrs at 21 degC relative to control; assay type: functional
[12] = tested on: S2; assay: Induction of luciferase protein trans-splicing in Drosophila melanogaster S2 cells transfected with N-luc and C-luc assessed as increase in luciferase activity at 100 nM after 4 hrs by Western blot analysis; assay type: functional, cell-based
[13] = Induction of luciferase protein trans-splicing in Drosophila melanogaster S2 cells transfected with N-luc and C-luc and 3 copies of FRB assessed as increase in luciferase activity at 100 nM after 4 hrs relative to control; assay type: functional
[14] = Induction of luciferase protein trans-splicing in Drosophila melanogaster S2 cells transfected with N-luc and C-luc and FRB assessed as increase in luciferase activity at 100 nM after 4 hrs relative to control; assay type: functional

Row | Compound | Ratio [1] | Activity [2] | Activity [3] | Activity [4] | Ratio [5] | Activity [6] | Activity [7] | Activity [8] | Activity [9] | Activity [10] | Ratio [11] | Activity [12] | Ratio [13] | Ratio [14]
1 | CO[C@H]1C[C@@H]2CC[C@@H](C)[C@@](O)(O2)C(=O)C(=O)N2CCCC[C@H]2C(=O)O[C@H]([C@H](C)C[C@@H]2CC[C@@H](O)[C@H](OC)C2)CC(=O)[C@H](C)/C=C(\C)[C@@H](O)[C@@H](OC)C(=O)[C@H](C)C[C@H](C)/C=C/C=C/C=C/1C [SIROLIMUS] | 50 | Active | inactive | Active | 22 | inactive | tde | inactive | Dose-dependent effect | Active | 6 | Active | 75 | 15
2 | CO[C@H]1[C@@H](O)[C@H](C)C[C@H](C)/C=C/C=C/C=C(\C)[C@@H](c2c[nH]c3c(C)cccc23)C[C@@H]2CC[C@@H](C)[C@@](O)(O2)C(=O)C(=O)N2CCCC[C@H]2C(=O)O[C@H]([C@H](C)C[C@@H]2CC[C@@H](O)[C@H](OC)C2)C[C@H](O)[C@H](C)/C=C(\C)[C@H]1O |  |  |  |  |  |  |  |  |  |  |  | inactive |  | 
